# Values quoted from earlier work in PMC6856260 (Clinical Pharmacokinetics, 2019).
# Read-outs that look alike come from different tables or passages of the source.
# Key:
# [1] = post-dose fasting periods of 15, 30, 60 and 120 min; oral, co-formulated with SNAC
# [2] = co-formulated with 5-CNAC
substance,measurement,setting,value
semaglutide: oral semaglutide co-formulated with SNAC,effect of increasing post-dose fasting period on exposure (in words),[1],increasing semaglutide exposure
salmon calcitonin,reduction of exposure of salmon calcitonin,[2]; meal 10 min after oral dosing versus 60 min post-dose fasting,up to 30%
same,reduction of exposure of salmon calcitonin,[2]; meal 10 min after oral dosing versus 4 h post-dose fasting,41%
